Measurements: PubChem BioAssay AID248 (DTP/NCI, 2004)
“And” between values parts separate entries of the source, which are not always exact repeats. Equal entries are not always repeated. Inconclusive results and toxic doses are left out. Cut-off read from the data, not from the text of the source: active = T/C of 150% or more; inactive = T/C below 125%.

Test system: L1210 leukemia ip in BDF1 mice, survival T/C
Assay: NCI In Vivo Anticancer Drug Screen. Data for tumor model L1210 Leukemia (intraperitoneal) in B6D2F1 (BDF1) mice
Conditions: endpoint: mean survival time, higher = longer survival
Summary of the method: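 Antitumor effect is assessed in tumor-bearing animals. Survival in the compound arm is compared with a vehicle-dosed control arm and expressed as their quotient.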

[1] = dose: 100.0 mg/kg/injection, schedule: Q01DX001 (ip), vehicle: saline
[2] = dose: 200.0 mg/kg/injection, schedule: Q01DX001 (ip), vehicle: saline
[3] = dose: 100.0 mg/kg/injection, schedule: Q01DX009 (ip), vehicle: Klucel (hydroxypropylcellulose) (HPC)
[4] = dose: 200.0 mg/kg/injection, schedule: Q01DX009 (ip), vehicle: Klucel (hydroxypropylcellulose) (HPC)
[5] = dose: 400.0 mg/kg/injection, schedule: Q01DX009 (ip), vehicle: Klucel (hydroxypropylcellulose) (HPC)
[6] = dose: 100.0 mg/kg/injection, schedule: Q04DX003 (ip), vehicle: Klucel (hydroxypropylcellulose) (HPC)
[7] = dose: 200.0 mg/kg/injection, schedule: Q04DX003 (ip), vehicle: Klucel (hydroxypropylcellulose) (HPC)
[8] = dose: 400.0 mg/kg/injection, schedule: Q04DX003 (ip), vehicle: Klucel (hydroxypropylcellulose) (HPC)
[9] = dose: 100.0 mg/kg/injection, schedule: Q04DX003 (ip), vehicle: saline with Tween-80
[10] = dose: 200.0 mg/kg/injection, schedule: Q04DX003 (ip), vehicle: saline with Tween-80
[11] = dose: 400.0 mg/kg/injection, schedule: Q04DX003 (ip), vehicle: saline with Tween-80
[12] = dose: 50.0 mg/kg/injection, schedule: Q01DX001 (ip), vehicle: carboxymethylcellulose (CMC)

Measured: T/C

NC(Cc1ccccc1)C(=O)NCCCCCCCCCCNC(=O)C(N)Cc1ccccc1 (stereo not drawn)
inactive: dose: 50.0 mg/kg/injection, schedule: Q01DX001 (ip), vehicle: saline 98 % of control | [1] 104 % of control | [2] 103 % of control

N#CCCN(Cc1ccncc1)CN1C(=O)c2ccccc2C1=O
inactive: [3] 101 % of control | [4] 87 % of control | [5] 96 % of control

Nc1nc(N)c2[nH]c(CO)nc2n1
inactive: dose: 75.0 mg/kg/injection, schedule: Q01DX001 (ip), vehicle: carboxymethylcellulose (CMC) 110 % of control | dose: 150.0 mg/kg/injection, schedule: Q01DX001 (ip), vehicle: carboxymethylcellulose (CMC) 97 % of control | dose: 300.0 mg/kg/injection, schedule: Q01DX001 (ip), vehicle: carboxymethylcellulose (CMC) 105 % of control

NC(=O)c1ccccc1C(N)=O
inactive: [3] 97 % of control | [6] 100 % of control | [4] 98 % of control | [7] 102 % of control | [5] 93 % of control | [8] 100 % of control

CCO/C(=C\[P+](c1ccccc1)(c1ccccc1)c1ccccc1)c1ccccc1
inactive: dose: 5.0 mg/kg/injection, schedule: Q01DX001 (ip), vehicle: saline 90 % of control | dose: 10.0 mg/kg/injection, schedule: Q01DX001 (ip), vehicle: saline 93 % of control | dose: 20.0 mg/kg/injection, schedule: Q01DX001 (ip), vehicle: saline 95 % of control | dose: 40.0 mg/kg/injection, schedule: Q01DX001 (ip), vehicle: saline 95 % of control

NNC(=O)C1CCN1C(c1ccccc1)c1ccccc1 (stereo not drawn)
inactive: dose: 25.0 mg/kg/injection, schedule: Q01DX001 (ip), vehicle: saline with Tween-80 101 % of control | dose: 50.0 mg/kg/injection, schedule: Q01DX001 (ip), vehicle: saline with Tween-80 101 % of control | dose: 100.0 mg/kg/injection, schedule: Q01DX001 (ip), vehicle: saline with Tween-80 97 % of control

COC(OC)c1nc(N)[nH]c(=O)c1Cc1ccc(C)c2ccccc12
inactive: dose: 100.0 mg/kg/injection, schedule: Q01DX009 (ip), vehicle: saline with Tween-80 96 % of control | [9] 103 % of control | dose: 200.0 mg/kg/injection, schedule: Q01DX009 (ip), vehicle: saline with Tween-80 90 % of control | [10] 97 % of control | dose: 400.0 mg/kg/injection, schedule: Q01DX009 (ip), vehicle: saline with Tween-80 90 % of control | [11] 92 % of control

COC1=C(NC(C)(C)C)C(=O)C(OC)=C(NC(C)(C)C)C1=O
inactive: [12] 103 % of control | dose: 100.0 mg/kg/injection, schedule: Q01DX001 (ip), vehicle: carboxymethylcellulose (CMC) 97 % of control | [3] 109 % of control | [6] 98 % of control | dose: 200.0 mg/kg/injection, schedule: Q01DX001 (ip), vehicle: carboxymethylcellulose (CMC) 109 % of control | [4] 95 % of control | [7] 96 % of control | dose: 400.0 mg/kg/injection, schedule: Q01DX001 (ip), vehicle: carboxymethylcellulose (CMC) 109 % of control | [5] 106 % of control | [8] 100 % of control

Cc1cc(CSC2=NCCCN2)c(CSC2=NCCCN2)cc1C
inactive: dose: 6.25 mg/kg/injection, schedule: Q01DX001 (ip), vehicle: saline 96 % of control | dose: 6.25 mg/kg/injection, schedule: Q01DX009 (ip), vehicle: saline 100 % of control and 111 % of control | dose: 6.25 mg/kg/injection, schedule: Q04DX002 (ip), vehicle: saline with Tween-80 94 % of control | dose: 6.25 mg/kg/injection, schedule: Q04DX003 (ip), vehicle: saline 91 % of control | dose: 12.5 mg/kg/injection, schedule: Q01DX001 (ip), vehicle: saline 97 % of control | dose: 12.5 mg/kg/injection, schedule: Q01DX009 (ip), vehicle: saline 102 % of control and 92 % of control | dose: 12.5 mg/kg/injection, schedule: Q04DX002 (ip), vehicle: saline with Tween-80 97 % of control | dose: 12.5 mg/kg/injection, schedule: Q04DX003 (ip), vehicle: saline 90 % of control | dose: 25.0 mg/kg/injection, schedule: Q01DX001 (ip), vehicle: saline 99 % of control and 108 % of control | dose: 25.0 mg/kg/injection, schedule: Q01DX009 (ip), vehicle: saline 96 % of control and 101 % of control | dose: 25.0 mg/kg/injection, schedule: Q04DX002 (ip), vehicle: saline with Tween-80 100 % of control | dose: 25.0 mg/kg/injection, schedule: Q04DX002 (ip), vehicle: saline 87 % of control | dose: 25.0 mg/kg/injection, schedule: Q04DX003 (ip), vehicle: saline 89 % of control | [1] 93 % of control

CCCCCCCCCCCCCCCCCC(CCCCCCCCCCCCCCCCC)=NNC(N)=S
inactive: dose: 100.0 mg/kg/injection, schedule: Q01DX009 (ip), vehicle: other 92 % of control | dose: 200.0 mg/kg/injection, schedule: Q01DX009 (ip), vehicle: other 89 % of control | dose: 400.0 mg/kg/injection, schedule: Q01DX009 (ip), vehicle: other 97 % of control

NNc1ccc(S(=O)(=O)C(F)F)cc1
inactive: [1] 95 % of control | [2] 92 % of control | dose: 400.0 mg/kg/injection, schedule: Q01DX001 (ip), vehicle: saline 93 % of control

COc1nc(SC)nc2[nH]ccc12
inactive: dose: 75.0 mg/kg/injection, schedule: Q01DX001 (ip), vehicle: other 103 % of control | dose: 150.0 mg/kg/injection, schedule: Q01DX001 (ip), vehicle: other 100 % of control | dose: 300.0 mg/kg/injection, schedule: Q01DX001 (ip), vehicle: other 97 % of control

c1ccc2c(c1)ccc1c[n+]3c(ccc4ccccc43)cc12
inactive: dose: 25.0 mg/kg/injection, schedule: Q01DX001 (ip), vehicle: carboxymethylcellulose (CMC) 104 % of control | [12] 108 % of control

NC(=O)Cc1cccc(=O)[nH]1
inactive: dose: 100.0 mg/kg/injection, schedule: Q01DX001 (ip), vehicle: Klucel (hydroxypropylcellulose) (HPC) 100 % of control | dose: 200.0 mg/kg/injection, schedule: Q01DX001 (ip), vehicle: Klucel (hydroxypropylcellulose) (HPC) 97 % of control | dose: 400.0 mg/kg/injection, schedule: Q01DX001 (ip), vehicle: Klucel (hydroxypropylcellulose) (HPC) 95 % of control

S=c1[nH]nc(Nc2ccccc2Cl)s1
inactive: [3] 97 % of control | [4] 98 % of control | [5] 109 % of control

COc1cc(C)c(Cl)c(C)c1C(C)=O
inactive: [3] 101 % of control | [6] 95 % of control | [4] 100 % of control | [7] 101 % of control | [5] 101 % of control | [8] 97 % of control

C[N+]1(C2CCC3CCCC2C3=O)CCCC1 (stereo not drawn)
inactive: dose: 75.0 mg/kg/injection, schedule: Q01DX001 (ip), vehicle: saline 98 % of control | dose: 150.0 mg/kg/injection, schedule: Q01DX001 (ip), vehicle: saline 106 % of control

CSCCNC(=O)NS(=O)(=O)c1ccc(C)cc1
inactive: [9] 96 % of control | [10] 97 % of control | [11] 97 % of control

c1cc[c]([Ge]([CH2][CH2][Sn]([c]2ccccc2)([c]2ccccc2)[c]2ccccc2)([CH2][CH2][Sn]([c]2ccccc2)([c]2ccccc2)[c]2ccccc2)[c]2ccccc2)cc1
inactive: dose: 100.0 mg/kg/injection, schedule: Q04DX002 (ip), vehicle: saline with Tween-80 98 % of control | dose: 200.0 mg/kg/injection, schedule: Q04DX002 (ip), vehicle: saline with Tween-80 102 % of control | dose: 400.0 mg/kg/injection, schedule: Q04DX002 (ip), vehicle: saline with Tween-80 94 % of control
